Measurements published in patent US7923461B2, “TNF-α production inhibitors” (Santen Pharmaceutical Co., Ltd., priority 2000, dated 2011).

Experiments:
TNF-α production = test: Inhibitory effects on TNF-α production induced by lipopolysaccharide (LPS) stimulation, in vivo test; parameters: species or system rat; settings: female rats, plasma TNF-α (ELISA) two hours after LPS; for inhibition in vivo at 3 mg/kg / inhibition in vivo at 10 mg/kg: Rattus norvegicus, 2 h, read-out: Inhibition rate (%) of TNF-α production; for inhibition in vivo at 3 mg/kg / Inhibition rate (%) of TNF-α production: oral administration of 3 mg/kg immediately after LPS to footpad; for inhibition in vivo at 10 mg/kg: oral administration of 10 mg/kg immediately after LPS to footpad
Protocol: Inhibitory effects on TNF-α production induced by lipopolysaccharide (LPS) stimulation were studied by in vivo tests according to the method of Tsuji et al. (Inflamm res. 46 (1997) 193-198).
Female rats (five per group), body weight of about 200 g, about eight weeks old, were used as test animals. LPS from Salmonella was dissolved in physiological saline to prepare an LPS solution (1 mg/ml). Each test substance was dissolved or uniformly suspended in a 1% methylcellulose solution to give test substance-preparation liquids.
The above-mentioned LPS solution (0.5 ml/kg) was administered to a footpad of the rat. Immediately after the LPS administration, the test substance-preparation liquid (containing 10 mg/kg or 3 mg/kg test substance) was orally administered. Two hours after the LPS administration, blood was collected from abdominal aorta and was centrifuged at 4° C. and 3000 rpm for ten minutes. TNF-α levels in the obtained plasma were measured with a rat TNF-α-specific ELISA kit. TNF-α was not observed in the plasma with respect to an LPS-non-administered group (control).
Inhibition rates of TNF-α production of the test substances were determined by the following equation. Inhibition rate (%)=[(A−B)/A]×100 A: TNF-α level in plasma of test substance-nonadministered group B: TNF-α level in plasma of test substance-administered group (Results)

SMILES | inhibition in vivo at 10 mg/kg (TNF-α production) | melting point | other results
CCCCCN(CCC12CC3CC(CC(C3)C1)C2)C(=O)NC[C@@H]1C[C@@H]1c1ccncc1 (relative stereo) [Compound No. 15-1, cis 1-[2-(1-Adamantyl)ethyl]-1-pentyl-3-[2-(4-pyridyl)cyclopropylmethyl]urea] |  |  | inhibition in vivo at 3 mg/kg (TNF-α production): 73.8%
CCCCCN(CCC12CC3CC(CC(C3)C1)C2)C(=O)NCC(C)Cc1ccncc1 (single isomer, unassigned; (-)) [Compound No. 1-120, (−)-1-[2-(1-Adamantyl)ethyl]-3-[2-methyl-3-(4-pyridyl)propyl]-1-pentylurea] | 95.1% |  | 
CCCCCN(CCC12CC3CC(CC(C3)C1)C2)C(=O)NCCCc1ccncc1 [Compound No. 1-1, 1-[2-(1-Adamantyl)ethyl]-1-pentyl-3-[3-(4-pyridyl)propyl]urea] | 92.1% |  | 
CCCCN(CCCC)C(=O)NCCCc1ccncc1 [Compound No. 1-10, 1,1-Dibutyl-3-[3-(4-pyridyl)propyl]urea] |  |  | inhibition in vivo at 3 mg/kg (TNF-α production): 63%
N#CCN(CCC12CC3CC(CC(C3)C1)C2)C(=O)NCCCc1ccncc1 [Compound No. 1-20, 1-[2-(1-Adamantyl)ethyl]-1-cyanomethyl-3-[3-(4-pyridyl)propyl]urea] | 60% |  | 
CN(CCN(CCC12CC3CC(CC(C3)C1)C2)C(=O)NCCCc1ccncc1)C(=O)OC(C)(C)C [Compound No. 1-26, 1-[2-(1-Adamantyl)ethyl]-1-[2-[N-(t-butoxycarbonyl)-N-methylamino]ethyl]-3-[3-(4-pyridyl)propyl]urea] | 95.5% |  | 
O=C(NCCCc1ccncc1)N(CCC12CC3CC(CC(C3)C1)C2)OCc1ccccc1 [Compound No. 1-28, 1-[2-(1-Adamantyl)ethyl]-1-benzyloxy-3-[3-(4-pyridyl)propyl]urea] | 90.4% |  | 
CCCN(CCCC12CC3CC(CC(C3)C1)C2)C(=O)NCCCc1ccncc1 [Compound No. 1-35, 1-[3-(1-Adamantyl)propyl]-1-propyl-3-[3-(4-pyridyl)propyl]urea] | 82.5% |  | 
Cc1nc(CN(CCC23CC4CC(CC(C4)C2)C3)C(=O)NCCCc2ccncc2)cs1 [Compound No. 1-37, 1-[2-(1-Adamantyl)ethyl]-1-(2-methylthiazol-4-yl)methyl-3-[3-(4-pyridyl)propyl]urea] | 84.3% |  | 
CCCCCN(CCCCC)C(=O)NCCCc1ccncc1 [Compound No. 1-38, 1,1-Dipentyl-3-[3-(4-pyridyl)propyl]urea] | 92.3% |  | 
CCCCCN(CCC1CCCCC1)C(=O)NCCCc1ccncc1 [Compound No. 1-44, 1-(2-Cyclohexylethyl)-1-pentyl-3-[3-(4-pyridyl)propyl]urea] | 93.7% |  | 
CCCCCN(CCc1ccccc1)C(=O)NCCCc1ccncc1 [Compound No. 1-45, 1-Pentyl-1-phenethyl-3-[3-(4-pyridyl)propyl]urea] | 91.1% |  | 
CCCCCN(CCc1ccccn1)C(=O)NCCCc1ccncc1 [Compound No. 1-55, 1-Pentyl-1-[2-(2-pyridyl)ethyl]-3-[3-(4-pyridyl)propyl]urea] | 78.1% |  | 
CCCCCN(CCN(C)C(=O)OCc1ccccc1)C(=O)NCCCc1ccncc1 [Compound No. 1-78, [2-(N-Benzyloxycarbonyl-N-methylamino)ethyl]-1-pentyl-3-[3-(4-pyridyl)propyl]urea] |  |  | Inhibition rate (%) of TNF-α production (TNF-α production): 61.5%
C=CCCCCCCN(CCCCCCC=C)C(=O)NCCCc1ccncc1 [Compound No. 1-95, 1,1-Di(7-octenyl)-3-[3-(4-pyridyl)propyl]urea] |  |  | inhibition in vivo at 3 mg/kg (TNF-α production): 70.8%
CCCCCN(CCC12CC3CC(CC(C3)C1)C2)C(=O)NC/C=C\c1ccncc1 [Compound No. 1-111, (Z)-1-[2-(1-Adamantyl)ethyl]-1-pentyl-3-[3-(4-pyridyl)-2-propenyl]urea] |  |  | inhibition in vivo at 3 mg/kg (TNF-α production): 85.1%
CCN(CCCCC12CC3CC(CC(C3)C1)C2)C(=O)NCCCc1ccncc1 [Compound No. 1-124, 1-[4-(1-Adamantyl)butyl]-1-ethyl-3-[3-(4-pyridyl)propyl]urea] |  | 92.7 to 93.7 °C | 
CCCN(CCCCC12CC3CC(CC(C3)C1)C2)C(=O)NCCCc1ccncc1 [Compound No. 1-125, 1-[4-(1-Adamantyl)butyl]-1-propyl-3-[3-(4-pyridyl)propyl]urea] |  | 110 to 110.5 °C | 

SMILES | inhibition in vivo at 10 mg/kg (TNF-α production) | melting point | other results
CCCCCN(CCC12CC3CC(CC(C3)C1)C2)C(=O)NCCNc1ccncc1 [Compound No. 1-126, 1-[2-(1-Adamantyl)ethyl]-1-pentyl-3-[2-(4-pyridylamino)ethyl]urea] |  | 133.9 to 134.5 °C | 
CCCN(CCCC12CC3CC(CC(C3)C1)C2)C(=O)NCc1ccncc1 [Compound No. 1-128, 1-[3-(1-Adamantyl)propyl]-1-propyl-3-(4-pyridyl)methylurea] |  | 96 to 98 °C | 
CCN(CCCC12CC3CC(CC(C3)C1)C2)C(=O)NCCCc1ccncc1 [Compound No. 1-130, 1-[3-(1-Adamantyl)propyl]-1-ethyl-3-[3-(4-pyridyl)propyl]urea] |  | 97.5 to 98.2 °C | 
CCCN(CC(=O)NC12CC3CC(CC(C3)C1)C2)C(=O)NCCCc1ccncc1 [Compound No. 1-132, 1-(1-Adamantyl)aminocarbonylmethyl-1-propyl-3-[3-(4-pyridyl)propyl]urea] |  | 132 to 132.5 °C | 
CCCCCN(CCC12CC3CC(CC(C3)C1)C2)C(=O)NCC(C)(C)Cc1ccncc1 [Compound No. 1-135, 1-[2-(1-Adamantyl)ethyl]-3-[2,2-dimethyl-3-(4-pyridyl)propyl]-1-pentylurea] |  | 82.5 to 84.9 °C | 
CCCN(CCC12CC3CC(CC(C3)C1)C2)C(=O)CCCCc1ccncc1 [Compound No. 2-1, 5-(4-Pyridyl)valeric acid N-[2-(1-adamantyl)ethyl]-N-propylamide] | 91.5% |  | 
CCCCCN(CC12CC3CC(CC(C3)C1)C2)C(=O)CCCCc1ccncc1 [Compound No. 2-3, 5-(4-Pyridyl)valeric acid N-(1-adamantyl)methyl-N-pentylamide] | 51.8% |  | 
CN(CCN(CCC12CC3CC(CC(C3)C1)C2)C(=O)CCCCc1ccncc1)C(=O)OC(C)(C)C [Compound No. 2-7, 5-(4-Pyridyl)valeric acid N-[2-(1-adamantyl)ethyl]-N-[2-[N-(tbutoxycarbonyl)-N′-methylamino]ethyl]amide] |  |  | Inhibition rate (%) of TNF-α production (TNF-α production): 78.7%
CCCCCN(CCc1ccccc1)C(=O)CCCCc1ccncc1 [Compound No. 2-9, 5-(4-Pyridyl)valeric acid N-pentyl-N-phenethylamide] |  |  | inhibition in vivo at 3 mg/kg (TNF-α production): 84.5%
CCCCCN(CCC1CCCCC1)C(=O)CCCCc1ccncc1 [Compound No. 2-11, 5-(4-Pyridyl)valeric acid N-(2-cyclohexylethyl)-NY-pentylamide] |  |  | Inhibition rate (%) of TNF-α production (TNF-α production): 53.5%
CCCCCN(CCC12CC3CC(CC(C3)C1)C2)C(=O)CCCCc1ccncc1 [Compound No. 2-14, 5-(4-Pyridyl)valeric acid N-[2-(1-adamantyl)ethyl]-N-pentylamide] |  |  | inhibition in vivo at 3 mg/kg (TNF-α production): 87.3%
CCCCCN(CCC12CC3CC(CC(C3)C1)C2)C(=O)CCSCc1ccncc1 [Compound No. 2-15, 3-(4-Pyridylmethylthio)propionic acid N-[2-(1-adamantyl)ethyl]-N-pentylamide] |  |  | inhibition in vivo at 3 mg/kg (TNF-α production): 68.1%
OCCN(CCc1ccccc1)C(=S)NCCCc1ccncc1 [Compound No. 7-2, 1-(2-Hydroxyethyl)-1-phenethyl-3-[3-(4-pyridyl)propyl]thiourea] |  | 105.6 to 107.1 °C | 
CN(CCN(CCC12CC3CC(CC(C3)C1)C2)C(=O)NCCCc1ccncc1)S(C)(=O)=O [Compound No. 10-4, 1-[2-(1-Adamantyl)ethyl]-1-[2-[N-methyl-N-(methylsulfonyl)amino]ethyl]-3-[3-(4-pyridyl)propyl]urea] |  | 164.9 to 167.2 °C | 
CN(CCN(CCC12CC3CC(CC(C3)C1)C2)C(=O)NCCCc1ccncc1)C(=O)CC(C)(C)C [Compound No. 10-6, 1-[2-(1-Adamantyl)ethyl]-1-[2-[N-(3,3-dimethylbutyryl)-N-methylamino]ethyl]-3-[3-(4-pyridyl)propyl]urea] |  | 101.4 to 102.4 °C | 
CC(C)(C)OC(=O)NCCN(CCC12CC3CC(CC(C3)C1)C2)C(=O)NCCCc1ccncc1 [Compound No. 10-8, 1-[2-(1-Adamantyl)ethyl]-1-[2-[N-(t-butoxycarbonyl)amino]ethyl]-3-[3-(4-pyridyl)propyl]urea] |  | 158 to 160.5 °C | 
CN(CCN(CCC12CC3CC(CC(C3)C1)C2)C(=O)NCCCc1ccncc1)C(=O)OC(C)(C)C(Cl)(Cl)Cl [Compound No. 10-10, 1-[2-(1-Adamantyl)ethyl]-1-[2-[N-(1,1-dimethyl-2,2,2-trichloroethoxycarbonyl)-N-methylamino]ethyl]-3-[3-(4-pyridyl)propyl]urea] |  | 47 to 52 °C | 
CCCN(CCCC12CC3CC(CC(C3)C1)C2)C(=O)NCCCc1ccncc1.O=P(O)(O)O [Compound No. 13-10, 1-[3-(1-Adamantyl)propyl]-1-propyl-3-[3-(4-pyridyl)propyl]urea phosphate] |  | 148 to 149 °C | 
